This is an account of results in patent publication US20240271102A1, “METHODS FOR ENGINEERING AND USE OF CILIATED ORGANOIDS HAVING NATIVE-LIKE, APICAL-OUT POLARITY” (Carnegie Mellon University, priority 2021, published 2024).

Assay type in all cases: cell-based, human
For series [1], the system named is apical-out airway organoids (AOAOs). The series can be described thus: AOAO rotation / angular velocity of […]-embedded organoids (computer vision tracking). The method, then: © embedding of AOAOs: Mature AOAOs at day-21 to day-28 of differentiation were collected together and embedded in […]® matrices. For […]® embedding, collected AOAOs were resuspended in 40% (vol/vol) GFR-[…]® in differentiation medium, which was kept on a heat plate set to 37° C. for 10 minutes to enable effective gelation. Upon matrix gelation, differentiation medium was added to the top of the AOAO-containing gel matrices. All matrix-embedded AOAOs were maintained at 37° C. with 5% CO2. The next day, 30-second video recordings of AOAOs were captured using EVOS FL Auto 2 Imaging System. […] The distance covered by each correspondence was measured and converted to the rotational velocity (Sun et al., in 2010 IEEE Computer Society Conference on Computer Vision and Pattern Recognition, 2432-2439, 2010). […] The difference in rotational and angular velocity was quantified by calculating the mean normalized deviation of velocity (rotational and angular) from the mean (FIG. 19E) using the following equation: Treating AOAOs with Paclitaxel or EHNA for angular velocity analysis: Mature AOAOs (day-21 to day-28 of differentiation) were embedded in […]® for two days before treatment with desired chemical inhibitors of cilia motility. […]

The test system is the same in series [2]. The series can be described thus: Cilia beating frequency (CBF) by kymograph analysis. As for the experimental part: Imaging the AOAO cilia beating for kymographs generation and cilia beating frequency (CBF) calculation: Mature AOAOs (day-21 to day-28 of differentiation) were transferred to a 1.5-mL Eppendorf tube and kept on ice. Cold collagen type 1 was neutralized with the neutralization solution, added to the organoids at a final concentration of 2 mg/mL, and the entire AOAO-collagen mixture was transferred to the glass bottom region of a MatTek dish. The MatTek dish containing organoids in collagen was kept on ice for additional 10 minutes until the organoids settled down to the bottom of the dish. The MatTek dish was then placed on a heat plate set to 37° C. for 10 minutes. 1 mL of differentiation medium was placed in the dish before capturing video recording of cilia beating using on a Zeiss AxioObserver Z1 microscope with a 100×, 1.45 NA objective and pco.edge 5.5 camera. The high-speed video recordings of cilia beating were preprocessed using the previously described method to smoothen noise and variations in contrast. Additionally, the Contrast Limited Adaptive Histogram Equalization (CLAHE) function in Python v. […] The normal vector with respect to the organoid surface for each region of interest was calculated. […] The peaks in the kymograph were counted and divided by the duration of the video to obtain the CBF value for the organoid. […]

In series [3] the test system is NHBE cells. The series can be described thus: Spheroid formation of NHBEs on U-bottom cell repellent surface. To be noted: 10 μM Y27632 in differentiation medium at initial seeding, day 1. The method, then:
Mucociliary differentiation of NHBEs with apical-out polarity was then carried out. Once the cells reached about 75% confluency, the medium was aspirated and cells were rinsed once with DPBS. Trypsin-EDTA (0.25%) was added and incubated at 37° C. After all the cells had lifted, complete RPMI medium was added to neutralize the trypsin. The cell suspension was transferred into a 15 mL centrifuge tube, which was then centrifuged at 220×g for 5 minutes at room temperature. The cell pellet was resuspended to a cell density of 5000 cells/mL in differentiation medium containing 10 μM of Y27632. Aliquots (100 μL) of the cell suspension were then transferred to each well of a 96-well cell-repellent microplate. 50 μL of the media were pipetted out from each well and replaced with fresh differentiation medium every other day. Apical-out organoid formation was examined with different starting NHBE cell numbers (1000, 500, 200, 100, 50, and 20 cells per well) on a 96-well U-bottom cell repellent surface. Studies also were conducted to test whether the addition of 10 μM Y27632 into the differentiation medium for initial seeding improved cell viability and spheroid formation (FIGS. 3A-3F and 4A-4F). […] It is noted that in other experiments, however, a density of 1000 cells per well did support favorable spheroid formation.

Series [4] deals with apical-out airway organoids (AOAOs). Briefly: MUC5AC goblet cell immunofluorescence staining of apical-out airway organoids. As for the experimental part: Differentiation of airway basal cells into apical-out airway organoids: Human ABSCs (P2) were trypsinized and resuspended (5000 cells/ml) in differentiation medium ([…]™-ALI Medium) supplemented with 10 μM Y27632. 100 μL of resuspended hABSCs were placed per well in a 96-well cell-repellent microplate (GreinerBio-One, 655970). The cultures were maintained at 37° C. with 5% CO2 for 21-28 days. […]

As for `CCCCCC[C@@H]([C@@H](C)O)n1cnc2c(N)ncnc21` (racemic) [EHNA, erythro-9-(2-hydroxy-3-nonyl)adenine], the “change in organoid angular velocity” value in series [1] (EHNA 0, 0.1, 0.3 and 1 mM, 2 hours, mature AOAOs) is reported as “dose-dependent reduction in organoid angular velocity”. In addition, the “cilia beating frequency (CBF)” value in series [2] (1 mM EHNA, 2 hours) is listed as “inhibitory effect”.
For `C[C@@H](N)[C@H]1CC[C@H](C(=O)Nc2ccncc2)CC1` [Y27632], the “spheroid formation with versus without Y27632” value in series [3] is reported as “no significant differences”.
Regarding `CC(=O)O[C@H]1C(=O)[C@@]2(C)[C@H]([C@H](OC(=O)c3ccccc3)[C@]3(O)C[C@H](OC(=O)[C@H](O)[C@@H](NC(=O)c4ccccc4)c4ccccc4)C(C)=C1C3(C)C)[C@]1(OC(C)=O)CO[C@@H]1C[C@@H]2O` [paclitaxel, Paclitaxel], in series [1] (paclitaxel 20 μM, monitored periodically for 24 hours), the “organoid angular velocity over time” value is on record as “progressive reduction of organoid angular velocity”. Further, the “cilia beating frequency (CBF)” value in series [2] (paclitaxel 20 μM, 24 hours) is on record as “dramatically reduced CBF”.
As to “IL-13: pro-inflammatory cytokine interleukin-13”, the “goblet cells (MUC5AC+) in Day 21 AOAOs” value in series [4] (IL-13 5 ng/mL in differentiation medium during the entire differentiation) is “massive induction of goblet cells”. The “goblet cells (MUC5AC expression)” value in series [4] (IL-13 at concentration as low as 1 ng/mL) was “exhibited goblet cells”.
